# Assay results from ChEMBL document CHEMBL6182885, “Discovery, Biological Activity, and Biosynthesis of Pinocicolin A, an Antibiotic Isocyanide Metabolite Produced by Penicillium pinophilum” (J Nat Prod, 2025).
# How the values were obtained:
# Staphylococcus aureus = assay: Antibacterial activity against Staphylococcus aureus NBRC13276 incubated overnight by disc diffusion assay; assay type: functional
# [1] = Metal chelating activity assessed as CAS-Cu complex formation in presence of CAS/CuCl2 by UV-Vis spectrophotometric analysis
# [2] = tested on: Brevibacillus choshinensis; assay: Antibacterial activity against Brevibacillus SP3 incubated overnight by disc diffusion assay; assay type: functional
# Jonesia denitrificans = assay: Antibacterial activity against Listeria denitrificans NBRC15587 incubated overnight by disc diffusion assay; assay type: functional
# Escherichia coli = assay: Antibacterial activity against Escherichia coli NEB10beta incubated overnight by disc diffusion assay; assay type: functional
# Pseudomonas aeruginosa = assay: Antibacterial activity against Pseudomonas aeruginosa NBRC12689 incubated overnight by disc diffusion assay; assay type: functional
MIC (Staphylococcus aureus) [µg],EC50 [1] [µM],MIC (Jonesia denitrificans) [µg],MIC (Escherichia coli) [µg],MIC (Pseudomonas aeruginosa) [µg],SMILES,MIC [2] [µg]
5,8,5,>100,>100,[C-]#[N+][C@H](C(=O)OC[C@@H](O)[C@@H](O)[C@H](O)[C@H](O)COC(=O)[C@@H]([N+]#[C-])C(C)C)C(C)C,5
>100,,>100,>100,>100,CC(C)[C@H](NC=O)C(=O)OC[C@@H](O)[C@@H](O)[C@H](O)[C@H](O)COC(=O)[C@@H](NC=O)C(C)C,>100
>100,26.9,>100,>100,>100,[C-]#[N+][C@H](C(=O)OC[C@@H](O)[C@@H](O)[C@H](O)[C@H](O)COC(=O)[C@@H](NC=O)C(C)C)C(C)C,>100
